Measurements published in patent US7829325B2, “Drug testing with bio-artificial organ slices including for example those derived from liver” (HepaHope, Inc., priority 2003, dated 2010).

How the values were obtained:
liver slices [1] = details: 20 mg loading dose; all trials; in presence of HL 100; FIG. 5
liver slices [2] = test system: liver slices
[3] = 2 mg lidocaine dose, continuous and intermittent (1:3) perfusion, in presence of HL 100, FIG. 3A

For `N` [ammonia], the “time of maximal ammonia clearance” value (liver slices [1]) was “approximately 30 minutes”.
For `CCN(CC)CC(=O)Nc1c(C)cccc1C` [lidocaine], the “lidocaine levels within 30 minutes” value (liver slices [2]; 2 mg dose, 6 hour trials and continuous perfusion 24 hour trial, exposed to HL 100, FIG. 3B) was “approximately 0.8 μg”, the “level of lidocaine at 120 minutes” value (liver slices [2]; [3]) was “approximately 0.5 :g” and the “level of lidocaine at approximately 30 minutes after lidocaine loading” value (liver slices [2]; [3]) was “approximately 0.9 μg”.
